Laboratory results from patent publication US10137070B2 (Industry-Academic Cooperation Foundation, Yonsei University, priority 2016, dated 2018).

Tests used:
[1] = system: Matrix metallopeptidase 1a (MMP-1a); assay: RT-PCR gene expression in dorsal skin tissue: MMP-1a; type: in vivo, albino hairless mice (Skh-1); conditions: 0.2% in diet for 10 weeks
Description: (§1) 5-week-old female albino hairless mice (Skh-1) used in the present example were purchased from ORIENTBIO (Gyeonggi-do, Korea) and subjected to an adaptation period of 1 week with solid feed. The experimental animal was divided into 4 groups and 5 mice were assigned to each group. All the experimental groups were divided into a normal control not irradiated with ultraviolet rays (−UVB), a group irradiated with ultraviolet rays (+UVB), and a group irradiated with ultraviolet rays and treated with α-ionone (αIO) or vitamin C (VitC). During a rearing period, the experimental groups were freely fed feed and water, temperature and humidity were maintained at 22±1° C. and 60±5%, a light period and a dark period were adjusted every day to 12 hours.
(§2) The −UVB and +UVB groups were fed a purified diet formulated based on the AIN-93 rodent diet composition (Ree yes, P G et al., J Nutr, 123:1939-1951, 1993) for 10 weeks, the αIO group were fed an AIN-93 purified diet with 0.2% of α-ionone (Sigma-Aldrich) for 10 weeks, and the VitC group was fed a diet, prepared by adding 0.2% of vitamin C (Sigma-Aldrich) to the AIN-93 purified diet, for 10 weeks. The diets were supplied daily with water between 10 am and 11 am, and food intakes were measured daily. […]

human skin fibroblasts = assay: Procollagen type I C-peptide (PIP) secretion of UVB-irradiated human skin fibroblasts (EIA kit); type: cell-based; conditions: 100 μM each; UVB 20 mJ/cm^2; 24 hours culture; mean of three wells
Method: Primary dermal fibroblasts (normal, human, neonatal, ATCC No. PCS-201-010) were purchased from ATCC (Manassas, Va., USA). The purchased cells were incubated in a 5% CO2 incubator at 37° C. by using a fibroblast growth medium (Promo Cell, Heidelberg) and used in experiments.
To examine collagen biosynthesis ability, human fibroblasts were distributed into a 12 well-plate at a concentration of 1.0×10^6 cells/well, α-ionone and vitamin C were added thereto at a concentration of 100 μM each, and the resulting human fibroblasts were incubated in a CO2 incubator for 24 hours. After removing the medium from each well, the plate was washed once with PBS, and 1 ml of PBS was added thereto, followed by irradiation with ultraviolet B (UVB) at a dose of 20 mJ/cm^2. The PBS of each well was replaced by a medium and the human fibroblasts were cultured for 24 hours, and then the amount of procollagen secreted into the medium was measured using a procollagen type C-peptide EIA kit (Takara Bio, Japan). A standard solution included in the collagen measurement kit was diluted according to concentration, absorbance was measured at 450 nm to create a standard concentration curve, and the amount of collagen produced was calculated. […]

[2] = system: Matrix metallopeptidase 3 (MMP-3); assay: RT-PCR gene expression in dorsal skin tissue: MMP-3; type: in vivo, albino hairless mice (Skh-1); conditions: 0.2% in diet for 10 weeks
Description: as §1, §2

[3] = system: Collagen type I alpha2 (Col1α2); assay: RT-PCR gene expression in dorsal skin tissue: Col1α2; type: in vivo, albino hairless mice (Skh-1); conditions: 0.2% in diet for 10 weeks
Description: as §1, §2

[4] = system: Collagen type III alpha1 (Col3α1); assay: RT-PCR gene expression in dorsal skin tissue: Col3α1; type: in vivo, albino hairless mice (Skh-1); conditions: 0.2% in diet for 10 weeks
Description: as §1, §2

[5] = system: dorsal skin of ultraviolet rays-irradiated hairless mice; assay: Wrinkle formation on dorsal skin of UVB-irradiated hairless mice (images, silicone replica, image analyzer); type: in vivo, albino hairless mice (Skh-1); conditions: 0.2% in diet for 10 weeks
Description: as §1
(§3) The −UVB and +UVB groups were fed a purified diet formulated based on the AIN-93 rodent diet composition (Ree yes, P G et al., J Nutr, 123:1939-1951, 1993) for 10 weeks, the αIO group were fed an AIN-93 purified diet with 0.2% of α-ionone (Sigma-Aldrich) for 10 weeks, and the VitC group was fed a diet, prepared by adding 0.2% of vitamin C (Sigma-Aldrich) to the AIN-93 purified diet, for 10 weeks. The diets were supplied daily with water between 10 am and 11 am, and food intakes were measured daily.
(§4) During the experimental rearing period, dorsal parts of the hairless mice were irradiated with UVB three times a week, and the amount of ultraviolet radiation was 73 mJ/cm^2 for the first one week, 146 mJ/cm^2 for the second week, and 219 mJ/cm^2 for the third week to the tenth week. During rearing, body weights and skin thicknesses of the experimental groups were measured weekly, and images of dorsal skin parts thereof were taken. The skin thicknesses of buttocks of the hairless mice were measured using a digital micro caliper (Marathon Watch Company Ltd, Ontario, Canada).
The skin of each hairless mouse irradiated with ultraviolet rays for 10 weeks was replicated using silicone rubber and a degree of the formation of wrinkles was measured. A disk with a circular hole having a diameter of 1 cm was attached to a dorsal part of the hairless mouse, reagents for preparing a replica were mixed, the mixed resultant was thinly spread on the dorsal art of the hairless mouse and completely dried, and then the disk was carefully detached therefrom, thereby completing the preparation of the replica. The replica was prepared at a temperature of about 20° C. to about 23° C. and a humidity of about 45% to about 50% under constant temperature and constant humidity conditions, a silicon rubber impression material (Epigem, Seoul, Korea) for preparing a replica was used. To analyze the prepared replica, four wrinkle indexes, such as a total wrinkle area, a maximum wrinkle depth, a mean depth, and a mean length were analyzed using a computer image analyzer (Visioline VL650, Courage+Khazaka electronic GmbH, Germany).

[6] = Body weights and food intakes of hairless mice fed experimental diets; type: in vivo, albino hairless mice (Skh-1); conditions: 0.2% in AIN-93 diet for 10 weeks; UVB-irradiated hairless mice
Description: as §1, §3, §4

[7] = system: collagen fibers in dermis layers of UV-irradiated hairless mice; assay: Collagen fibers in dermis layer by Masson's trichrome staining; type: in vivo, albino hairless mice (Skh-1); conditions: 0.2% in diet for 10 weeks; UVB for 10 weeks
Description: as §1, §2

[8] = system: Collagen type I alpha1 (Col1α1); assay: RT-PCR gene expression in dorsal skin tissue: Col1α1; type: in vivo, albino hairless mice (Skh-1); conditions: 0.2% in diet for 10 weeks
Description: as §1, §2

[9] = system: skin tissues of ultraviolet rays-irradiated hairless mice; assay: Skin moisture content, moisture evaporation, elasticity and erythema index of UVB-irradiated hairless mice (Corneometer, Tewameter, Cutometer, Mexameter); type: in vivo, albino hairless mice (Skh-1); conditions: 0.2% in diet for 10 weeks; UVB three times a week; last day
Description: as §1, §3, §4
Skin moisture content, moisture evaporation, elasticity, and the erythema index of each of the experimental animal groups were measured once on the last day of the experiment using Corneometer®, Tewameter®, Cutometer®, and Mexameter® (Courage+Khazaka electronic GmbH), respectively. During the measurement, the value obtained by lightly pressing a certain portion of the experimental animal or the like was recorded.

[10] = system: Matrix metallopeptidase 9 (MMP-9); assay: RT-PCR gene expression in dorsal skin tissue: MMP-9; type: in vivo, albino hairless mice (Skh-1); conditions: 0.2% in diet for 10 weeks
Description: as §1, §2

[11] = system: skin of UV-irradiated hairless mice; assay: Skin thickness of UV-irradiated hairless mice (digital micro caliper); type: in vivo, albino hairless mice (Skh-1); conditions: last day, 0.2% in diet for 10 weeks
Description: as §1, §2

[12] = system: Matrix metallopeptidase 1b (MMP-1b); assay: RT-PCR gene expression in dorsal skin tissue: MMP-1b; type: in vivo, albino hairless mice (Skh-1); conditions: 0.2% in diet for 10 weeks
Description: as §1, §2

[13] = system: skin epidermis layer of UV-irradiated hairless mice; assay: Skin epidermis layer thickness by H&E staining; type: in vivo, albino hairless mice (Skh-1); conditions: 0.2% in diet for 10 weeks; UVB for 10 weeks
Description: as §1, §2

[14] = system: microorganisms harmful to the human body; conditions: Findic et al 2009; cited from earlier work
rats = conditions: 32 rats, orally 10 mg/day for 8 weeks; cited from earlier work
[15] = in vivo; cited from earlier work
[16] = replica, computer image analyzer

Compound: CC(=O)/C=C/C1C(C)=CCCC1(C)C (stereo not drawn) [α-ionone, (3E)-4-(2,6,6-trimethylcyclohex-2-en-1-yl)but-3-en-2-one]
- expression of MMP-1a gene compared to the +UVB control [1]: significant decrease
- increase in the amount of collagen (procollagen type I C-peptide secreted) compared to control cells irradiated with ultraviolet rays alone (+UVB) (human skin fibroblasts): 37%
- expression of MMP-3 gene compared to the +UVB control [2]: significant decrease
- expression of collagen type 1α2 compared to the +UVB control [3]: significant increase
- expression of collagen type 3α1 compared to the +UVB control [4]: significant increase
- degree of formation of wrinkles in silicone rubber replica compared to the +UVB control ([5]; UVB for 10 weeks): significant improvement on the thickness and depth of wrinkles
- skin wrinkles in images of dorsal skin (naked eye) compared to the +UVB control ([5]; UVB for 10 weeks): significant decrease in the thickness and depth of wrinkles
- decrease in maximum wrinkle depth compared to the +UVB control [5, 16]: 49%
- decrease in mean depth of wrinkles compared to the +UVB control [5, 16]: 39%
- decrease in mean length of wrinkles compared to the +UVB control [5, 16]: 68%
- decrease in total wrinkle area compared to the +UVB control [5, 16]: 60%
- effect on body weights [6]: no significant effect
- effect on food intakes [6]: no significant effect
- collagen fibers of the dermis layer (Masson's trichrome, aniline blue) compared to the control irradiated alone [7]: relatively more compact and regularly arranged
- expression of collagen type 1α1 compared to the +UVB control [8]: significant increase
- decrease in erythema index compared to the +UVB control [9]: 26%
- decrease in moisture evaporation compared to the +UVB control [9]: 46%
- increase in elasticity of skin tissue compared to the +UVB control [9]: 77%
- increase in moisture content of skin tissue compared to the +UVB control [9]: 78%
- expression of MMP-9 gene compared to the +UVB control [10]: significant decrease
- decrease in skin thickness compared to the +UVB control [11]: 19%
- expression of MMP-1b gene compared to the +UVB control [12]: significant decrease
- thickness of the thickened epidermis layer due to UV irradiation (H&E staining) [13]: significant decrease

Compound: O=C1O[C@H]([C@@H](O)CO)C(O)=C1O [vitamin C, reference compound]
- increase in the amount of collagen (procollagen type I C-peptide secreted) compared to control cells irradiated with ultraviolet rays alone (+UVB) (human skin fibroblasts): 37%
- effect on body weights [6]: no significant effect
- effect on food intakes [6]: no significant effect

Compound: ionone
- antimicrobial activity [14]: strong antimicrobial activity
- toxicity after oral administration (rats): no toxicity was shown
- LD50 [15]: 2 g/kg body weight
